# Like-named read-outs stand apart in the source and are kept apart here.
# Tests used:
# Rat Writhing = Rat Writhing (analgetic activity); type: in vivo; settings: Table 2; for ED50: Rattus norvegicus; for Rat Writhing po/sc: ratio of ED50 po/sc
# [1] = test system: Straub Tail induced by oxymorphone; test: Antagonism of oxymorphone-induced Straub Tail (antagonist activity); type: in vivo, mouse; settings: for ED50: Mus musculus; for Oxymorphone-Induced Straub Tail po/sc: ratio of ED50 po/sc
# Description: ^2 Antagonism of Straub Tail induced by oxymorphone (2 mg/kg, s.c.) i
# [2] = test system: phenylquinone induced writhings; test: animal or person; settings: for ED50: Mus musculus
# Description: In vivo testing was conducted on many of the compounds of the present invention.
# Rat Vocalization = Rat Vocalization (analgetic activity); type: in vivo; settings: Table 2; for ED50: Rattus norvegicus; for Rat Vocalization po/sc: ratio of ED50 po/sc
# Cough Response = test: animal or person; type: in vivo, dog; settings: for ED50: Canis lupus familiaris
# From the text: Comparative Antitussive Effects of (-)-XI, Butorphanol and
# Morphine Sulfate in the Unanesthetized Dog
# [3] = test system: Morphine Antagonism Rat Tail Flick; test: Morphine antagonism, Rat Tail Flick (antagonist activity); type: in vivo; settings: Table 3; for ED50: Rattus norvegicus; for Morphine Antagonism Rat Tail Flick po/sc: ratio of ED50 po/sc
# [4] = Physical dependence liability in man (predicted from mouse models); settings: prediction from the mouse test model
# Description: (§1) Buprenorphine and (-)XI were tested for physical dependence liability in mice. […] The compounds were then tested as substitutes for morphine in withdrawn morphine-dependent mice.
# [5] = Analgetic activity, overall comparison of Table 2; type: in vivo
# [6] = test system: opioids, oxymorphone and morphine; test: Antagonist activity, overall comparison of Table 3; type: in vivo
# [7] = test system: withdrawal jumping (abstinence); test: Primary physical dependence test in mice (withdrawal jumping on naloxone challenge); settings: repeated sc injections for two days
# Description: as §1
# [8] = test system: withdrawn morphine-dependent mice; test: Substitution for morphine in withdrawn morphine-dependent mice; settings: 3 to 54 mg/kg sc
# Description: as §1
# [9] = po, read-out: Analgetic activity ED50, Rat Writhing po
# [10] = sc, read-out: Analgetic activity ED50, Rat Writhing sc
# [11] = po, Table 3, read-out: Antagonist activity ED50, Oxymorphone-Induced Straub Tail po
# [12] = sc, Table 3, read-out: Antagonist activity ED50, Oxymorphone-Induced Straub Tail sc
# [13] = central, read-out: Analgetic activity ED50, Intraventricular
# [14] = po, read-out: Analgetic activity ED50, Mouse Writhing po
# [15] = sc, read-out: Analgetic activity ED50, Mouse Writhing sc
# [16] = po, read-out: Analgetic activity ED50, Rat Vocalization po
# [17] = sc, read-out: Analgetic activity ED50, Rat Vocalization sc
# [18] = po, unanesthetized dog, read-out: Oral antitussive ED50
# [19] = sc, unanesthetized dog, read-out: Antitussive ED50
# [20] = po, read-out: Antagonist activity ED50, Morphine Antagonism Rat Tail Flick po
# [21] = sc, read-out: Antagonist activity ED50, Morphine Antagonism Rat Tail Flick sc
# [22] = sc, mice, Table 1, oxymorphone 2 mg/kg, s.c., read-out: Antagonist Activity, Oxymorphone Straub Tail ED50
# [23] = sc, read-out: Agonist Activity, Phenylquinone Writhing ED50
smiles,measurement,setting,value
Oc1ccc2c(c1)[C@@]13CCCC[C@@]1(O)[C@@H](C2)N(CC1CCC1)CC3 [Butorphanol],ED50,Rat Writhing; [9],2.1 mg/kg
same,ED50,Rat Writhing; [10],0.04 mg/kg
same,Rat Writhing po/sc,Rat Writhing,53
same,ED50,[1]; [11],55 mg/kg
same,ED50,[1]; [12],0.98 mg/kg
same,Oxymorphone-Induced Straub Tail po/sc,[1]; Table 3,56
same,ED50,[2]; [13],0.0019 mg/kg
same,ED50,[2]; [14],5.1 mg/kg
same,ED50,[2]; [15],0.045 mg/kg
same,Blood-brain barrier penetration,"[2]; mouse, in vivo",penetrate the blood-brain barrier more readily than either morphine or buprenorphine and to about the same degree as each other
same,Mouse Writhing po/sc,"[2]; ratio of ED50 po/sc, Table 2",113
same,sc/I. Vent.,"[2]; ratio of ED50 sc/intraventricular, Table 2",24
same,ED50,Rat Vocalization; [16],0.83 mg/kg
same,ED50,Rat Vocalization; [17],0.012 mg/kg
same,Rat Vocalization po/sc,Rat Vocalization,69
same,Percent Inhibition of Cough Response,"Cough Response; 0.1 mg/kg sc, 15 min",98%
same,Percent Inhibition of Cough Response,"Cough Response; 0.1 mg/kg sc, 30 min",96%
same,Percent Inhibition of Cough Response,"Cough Response; 0.1 mg/kg sc, 60 min",92%
same,Percent Inhibition of Cough Response,"Cough Response; 0.1 mg/kg sc, 120 min",84%
same,Percent Inhibition of Cough Response,"Cough Response; 0.1 mg/kg sc, 180 min",64%
same,Percent Inhibition of Cough Response,"Cough Response; 0.1 mg/kg sc, 240 min",41%
same,Percent Inhibition of Cough Response,"Cough Response; 0.1 mg/kg sc, 300 min",28%
same,ED50,Cough Response; [18],0.32 mg/kg
same,ED50,Cough Response; [19],0.01 mg/kg
same,ED50,[3]; [20],22 mg/kg
same,ED50,[3]; [21],0.43 mg/kg
same,Morphine Antagonism Rat Tail Flick po/sc,[3],51
"COc1ccc2c(c1)[C@]13CCN[C@H](C2)[C@@H]1CCOC3 (racemic) [(±)-VIII, 3-methoxy-6-oxamorphinan]",ED50,[1]; [22],> 40 mg/kg
same,ED50,[2]; [23],~40 mg/kg
CN1CC[C@]23c4c5ccc(O)c4O[C@H]2[C@@H](O)C=C[C@H]3[C@H]1C5 [Morphine SO4],ED50,Rat Writhing; [9],1.6 mg/kg
same,ED50,Rat Writhing; [10],0.16 mg/kg
same,Rat Writhing po/sc,Rat Writhing,10
same,ED50,[2]; [13],0.0032 mg/kg
same,ED50,[2]; [14],3.1 mg/kg
same,ED50,[2]; [15],0.26 mg/kg
same,Mouse Writhing po/sc,"[2]; mouse, in vivo",12
same,ED50,Rat Vocalization; [16],2.1 mg/kg
same,ED50,Rat Vocalization; [17],0.19 mg/kg
same,Rat Vocalization po/sc,Rat Vocalization,11
same,Oral antitussive ED50,"Cough Response; dog, in vivo, po",0.62 mg/kg
same,Antitussive ED50,"Cough Response; dog, in vivo, sc",0.04 mg/kg
"Oc1ccc2c(c1)[C@]13CCN(CC4CC4)[C@H](C2)[C@@H]1CCOC3 [(-)-XI, (-)-17-Cyclopropylmethyl-3-hydroxy-6-oxamorphinan]",ED50,Rat Writhing; [9],0.22 mg/kg
same,ED50,Rat Writhing; [10],0.021 mg/kg
same,Rat Writhing po/sc,Rat Writhing,11
same,ED50,[1]; [22],0.44 mg/kg
same,ED50,[1]; [11],14 mg/kg
same,ED50,[1]; [12],0.44 mg/kg
same,Oxymorphone-Induced Straub Tail po/sc,[1]; Table 3,32
same,ED50,[2]; [13],0.0012 mg/kg
same,ED50,[2]; [14],0.3 mg/kg
same,ED50,[2]; [23],0.028 mg/kg
same,ED50,[2]; [15],0.028 mg/kg
same,Mouse Writhing po/sc,"[2]; mouse, in vivo",11
same,sc/I. Vent.,"[2]; mouse, in vivo, sc",23
same,ED50,Rat Vocalization; [16],0.11 mg/kg
same,ED50,Rat Vocalization; [17],0.006 mg/kg
same,Rat Vocalization po/sc,Rat Vocalization,18
same,Predicted physical dependence liability in man,[4],nil or of a low order
same,Percent Inhibition of Cough Response,"Cough Response; 0.005 mg/kg sc, 15 min",7%
same,Percent Inhibition of Cough Response,"Cough Response; 0.005 mg/kg sc, 30 min",52%
same,Percent Inhibition of Cough Response,"Cough Response; 0.005 mg/kg sc, 60 min",15%
same,Percent Inhibition of Cough Response,"Cough Response; 0.005 mg/kg sc, 120 min",41%
same,Percent Inhibition of Cough Response,"Cough Response; 0.005 mg/kg sc, 180 min",41%
same,Percent Inhibition of Cough Response,"Cough Response; 0.005 mg/kg sc, 240 min",37%
same,Percent Inhibition of Cough Response,"Cough Response; 0.005 mg/kg sc, 300 min",33%
same,Percent Inhibition of Cough Response,"Cough Response; 0.01 mg/kg sc, 15 min",38%
same,Percent Inhibition of Cough Response,"Cough Response; 0.01 mg/kg sc, 30 min",68%
same,Percent Inhibition of Cough Response,"Cough Response; 0.01 mg/kg sc, 60 min",86%
same,Percent Inhibition of Cough Response,"Cough Response; 0.01 mg/kg sc, 120 min",98%
same,Percent Inhibition of Cough Response,"Cough Response; 0.01 mg/kg sc, 180 min",62%
same,Percent Inhibition of Cough Response,"Cough Response; 0.01 mg/kg sc, 240 min",50%
same,Percent Inhibition of Cough Response,"Cough Response; 0.01 mg/kg sc, 300 min",24%
same,Percent Inhibition of Cough Response,"Cough Response; 0.02 mg/kg sc, 15 min",90%
same,Percent Inhibition of Cough Response,"Cough Response; 0.02 mg/kg sc, 30 min",99%
same,Percent Inhibition of Cough Response,"Cough Response; 0.02 mg/kg sc, 60 min",88%
same,Percent Inhibition of Cough Response,"Cough Response; 0.02 mg/kg sc, 120 min",70%
same,Percent Inhibition of Cough Response,"Cough Response; 0.02 mg/kg sc, 180 min",67%
same,Percent Inhibition of Cough Response,"Cough Response; 0.02 mg/kg sc, 240 min",67%
same,Percent Inhibition of Cough Response,"Cough Response; 0.02 mg/kg sc, 300 min",64%
same,Percent Inhibition of Cough Response,"Cough Response; 0.05 mg/kg sc, 15 min",100%
same,Percent Inhibition of Cough Response,"Cough Response; 0.05 mg/kg sc, 30 min",100%
same,Percent Inhibition of Cough Response,"Cough Response; 0.05 mg/kg sc, 60 min",100%
same,Percent Inhibition of Cough Response,"Cough Response; 0.05 mg/kg sc, 120 min",100%
same,Percent Inhibition of Cough Response,"Cough Response; 0.05 mg/kg sc, 180 min",100%
same,Percent Inhibition of Cough Response,"Cough Response; 0.05 mg/kg sc, 240 min",100%
same,Percent Inhibition of Cough Response,"Cough Response; 0.05 mg/kg sc, 300 min",100%
same,ED50,Cough Response; [18],0.04 mg/kg
same,ED50,Cough Response; [19],0.006 mg/kg
same,Antitussive potency relative to butorphanol,"Cough Response; dog, in vivo, po",8 times
same,Antitussive potency relative to morphine sulfate,"Cough Response; dog, in vivo, po",16 times
same,Antitussive potency relative to butorphanol,"Cough Response; dog, in vivo, sc",1.7 times
same,Antitussive potency relative to morphine sulfate,"Cough Response; dog, in vivo, sc",approximately 7 times
same,Duration of antitussive activity,"Cough Response; dog, in vivo, sc",significantly longer duration of activity than either butorphanol or morphine sulfate
same,Antitussive activity,"Cough Response; subcutaneous, unanesthetized dog",potent antitussive agent
same,"Oral/parenteral analgetic potency ratio, comparison",[5],comparable to buprenorphine and approximately ten times better than butorphanol
same,"Oral analgetic potency, comparison",[5]; oral,markedly better than butorphanol and equivalent to buprenorphine
same,"Oral/parenteral potency ratio relative to antagonist activity, comparison",[6],superior to butorphanol and about equal to that of buprenorphine
same,Antagonist potency relative to butorphanol,[6]; blocking the effects of oxymorphone and morphine,about twice as potent as butorphanol
same,Withdrawal jumping (primary physical dependence),[7],did not exhibit withdrawal jumping (abstinence)
same,Substitution for morphine,[8],no evidence of substitution for morphine
same,ED50,[3]; [20],~3 mg/kg
same,ED50,[3]; [21],0.26 mg/kg
same,Morphine Antagonism Rat Tail Flick po/sc,[3],12
"C=CCN1CC[C@]23c4c5ccc(O)c4O[C@H]2C(=O)CC[C@@]3(O)[C@H]1C5 [Naloxone, reference compound]",ED50,[1]; [11],13 mg/kg
same,ED50,[1]; [12],0.09 mg/kg
same,Oxymorphone-Induced Straub Tail po/sc,[1]; Table 3,144
same,ED50,[3]; [20],2.7 mg/kg
same,ED50,[3]; [21],0.01 mg/kg
same,Morphine Antagonism Rat Tail Flick po/sc,[3],270
"Oc1ccc2c(c1)[C@]13CCN(CC4CC4)[C@H](C2)[C@@H]1CCOC3 (racemic) [(±)-XI, 17-Cyclopropylmethyl-3-hydroxy-6-oxamorphinan]",ED50,[1]; [22],0.76 mg/kg
same,ED50,[2]; [23],0.037 mg/kg

# Source: US4154932A (priority 1977, dated 1979)
